# Data: BindingDB's records for doi:10.1021/acsmedchemlett.7b00164 (Shenyang Pharmaceutical University, 2017)
# Test: Inhibition of PDGFR in mouse NIH/3T3 cells assessed as reduction in recombinant human PDGF-BB-induced cell proliferation after 42 hrs by cell titer 96 aqueous one solution based assay
row,Structure (SMILES),IC50
1,COC(=O)c1ccc2c(c1)NC(=O)/C2=C(\Nc1ccc(N2C(=O)CC[C@H]2CN2CCN(C)CC2)cc1)c1ccccc1,110 nM
2,COC(=O)c1ccc2c(c1)NC(=O)/C2=C(\Nc1ccc(N2C(=O)CC[C@@H]2CN2CCN(C)CC2)cc1)c1ccccc1,97 nM
3,COC(=O)c1ccc2c(c1)NC(=O)/C2=C(\Nc1ccc2c(c1)N(C(=O)Cn1cncn1)CC2)c1ccccc1,100 nM
4,COC(=O)c1ccc2c(c1)NC(=O)/C2=C(\Nc1ccc(N2CCC(CN3CCN(C)CC3)C2=O)cc1)c1ccccc1 (centres undefined),110 nM
5,COC(=O)c1ccc2c(c1)NC(=O)/C2=C(\Nc1ccc2c(c1)N(C(=O)CN1CCOCC1)CC2)c1ccccc1,100 nM
6,COC(=O)c1ccc2c(c1)NC(=O)/C2=C(\Nc1ccc2c(c1)N(C(=O)CN1CCCC1=O)CC2)c1ccccc1,260 nM
7,COC(=O)c1ccc2c(c1)NC(=O)/C2=C(\Nc1ccc2c(c1)N(C(=O)CN1CC(C)OC(C)C1)CC2)c1ccccc1 (centres undefined),150 nM
8,COC(=O)c1ccc2c(c1)NC(=O)/C2=C(\Nc1ccc2c(c1)N(C(=O)Cn1cccn1)CC2)c1ccccc1,110 nM
9,COC(=O)c1ccc2c(c1)NC(=O)/C2=C(\Nc1ccc(N(C)C(=O)CN2CCN(C)CC2)cc1)c1ccccc1 [BIBF-1120],85 nM
